Reference: patent US10829506B2, “Amino- or ammonium-containing sulfonic acid, phosphonic acid and carboxylic acid derivatives and their medical use” (GRI Bio, Inc., priority 2011, dated 2020)

Tests used:
phospho-Akt Ser473 = assay: Inhibition of Akt phosphorylation on Ser473 in IgE sensitized, antigen stimulated RBL-2H3 cells; type: cell-based, rat; details: normalized to total Akt, IgE and antigen for 15 min
Text: The mast cell degranulation assay using the RBL-2H3 cell line (see Example 27) was also used to determine the status of the PI3K/Akt axis. Activation of PI3K leads to production of PIP3 on the cytosolic side of the lipid bilayer. Akt is recruited to the PIP3 domain and subsequently activated by phosphorylation on residues Ser473 and Thr308. (Franke et al., Cell 81:727-736, (1995)). Once recruited to the membrane, it is phosphorylated and activated by other kinases (Hemmings, Science 275:628-630 (1997); Hemmings. Science 276:534 (1997); Downward, Science 279:673-674 (1998); Alessi et al., EMBO J. 15:6541-6551 (1996)). Western blotting of the phosphorylated Ser473 residue on Akt (phospho-Akt Ser473) is widely used to assess the level of activation of the PI3K/Akt axis.
All buffers and solutions used for the phosphor-Akt Ser473 assay were from Meso Scale Discovery. Tris Lysis Buffer consisted of 150 mM NaCl, 20 mM Tris, pH 7.5, 1 mM EDTA, 1 mM EGTA and 1% Triton-X-100. Complete Tris Lysis Buffer was prepared prior to use by addition of protease inhibitor, phosphatase inhibitors and PMSF. The 10x Tris Wash Buffer consisted of 500 mM Tris, pH 7.5, 1.5 M NaCl and 0.2% Tween-20. Blocker A was made up of bovine serum albumin in Tris Wash Buffer. Read Buffer T was used according to manufacturer's instructions. The Whole Cell Lysate Kits used were phospho-Akt Ser473 (K11100D. Lot K0011749) and total ERK½ (K11107D, Lot K0011698) as a loading control.
Protein assay: protein concentration was determined using the BCA (bicinchoninic acid) Protein Assay kit according to the manufacturer's instructions, Briefly, duplicate 10 μl samples of bovine serum albumin (BSA) standards, blank and lysates were incubated in a 96-well plate with 0.2 ml working reagent for 30 min at 37° C. Plates cooled to room temperature for 5 min and absorbance at 562 nm measured in a multi-mode plate reader. Protein concentrations were calculated using FlexStation 3 software (SoftMax Pro version 5.3). Protein concentration of lysates was determined from a standard curve (BSA) using a linear curve fit.
Phosphoprotein assay: protein phosphorylation was determined using the MULTI-SPOT® Assay System (Meso Scale Discovery), providing simultaneous detection of phosphorylated and total proteins. Briefly, capture antibodies against phosphorylated and total protein are patterned on distinct spots in the same well of 96-well plates. Sandwich immunoassay and electrochemiluminescence detection technology are combined to measure intensity of the emitted light from phosphorylated and total protein spots. For analysis of phosphor-Akt Ser473 was performed according to the manufacturer's instructions. The optimal amount of protein was determined at 5 μg lysate per well for ERK½ and 10 μg/well for phospho-Akt Ser473. Plates were blocked with 25 μl/well Blocker A for 1 h at room temperature with gentle agitation. During this time, the lysates were thawed and diluted to the desired protein concentration in complete Tris Lysis Buffer. Plates were washed four times in Tris Wash Buffer and 25 μl lysate per well added. Plates were incubated for 1-3 h at room temperature with agitation according to the manufacturer's recommendations. Plates were washed four times with Tris Wash Buffer, followed by addition of 25 μl/well of the respective detection antibody and incubation for 1 h at room temperature, with agitation. After a final four washes with Tris Wash Buffer 150 μl/well, Read Buffer T was added, and plates read on a SECTOR Imager 6000 plate reader.
The mean background signal from each plate was subtracted from averaged raw data. The amount of total protein phosphorylaled was expressed as % phosphoprotein according to the manufacturer's (Meso Scale Discovery) Instructions.
Levels of phospho-Akt Ser473 were determined in IgE sensitized and antigen stimulated cells after treatment without (positive control) or with 1, 5 and 25 μM test compound and normalized to levels of total Akt.

BALB/c-mice = assay: Local lymph node weight and cell count after TDI challenge; type: in vivo
Procedure: Directly after sacrifice, the ear draining lymph node (Ln. auricufaris) was prepared and excised. Organ weight was determined by means of an analytical balance (Kern, Balingen, Germany). Single cell suspensions were prepared by means of a glass potter (VWR, Darmstadt, Germany) and cells were counted with a hemocytometer (Neubauer, V W R, Germany).
One of the most undesirable side-effects of corticosteroid administration is immunosuppression, which leads to the inability to effectively address parasitic infection, wound healing and tumor growth. In the current study, the local lymph node reaction after TDI challenge (lymph node weight and cell number) was determined to assess the response of immune organs.

Q: Which results are given for `CCCCCCCCCCCCCC[N+](C)(C)CCCS(=O)(=O)[O-]` [Compound 1a, 3-(N,N-Dimethylmyristylammonio)-Propanesulfonate]?
A: Level of phospho-Akt Ser473 (phospho-Akt Ser473; 1 μM): 103.1 ± 17.4 % positive control; Level of phospho-Akt Ser473 (phospho-Akt Ser473; 5 μM): 57.0 ± 15.2 % positive control; Level of phospho-Akt Ser473 (phospho-Akt Ser473; 25 μM): 13.2 ± 4.2 % positive control; Local lymph node reaction (lymph node weight and cell number) (BALB/c-mice; systemic treatment at 100 mg/kg): did not have any impact; Local lymph node reaction (lymph node weight and cell number) (BALB/c-mice; topical treatment at 2% or 6%): did not have any impact
